Results from PubChem BioAssay (NCI).
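Test compounds were applied to cells in 96-well plates for 48 hours at 5 doses. GI50: concentration for 50% inhibition of growth. TGI marks complete inhibition of growth.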

Assays:
Experiment in all cases: NCI anticancer screen, dose series, 48 h
SR leukemia = system: SR leukemia
M14 melanoma = system: M14 melanoma
OVCAR-4 ovarian = system: OVCAR-4 ovarian
T-47D breast = system: T-47D breast
HOP-62 NSCLC = system: HOP-62 NSCLC
NCI-H23 lung = system: NCI-H23 lung
SW-620 colon = system: SW-620 colon
DU-145 prostate = system: DU-145 prostate
SK-MEL-5 melanoma = system: SK-MEL-5 melanoma
RPMI-8226 leukemia = system: RPMI-8226 leukemia

Compound	TGI (SR leukemia) [µM]	TGI (M14 melanoma) [µM]	TGI (OVCAR-4 ovarian) [µM]	TGI (T-47D breast) [µM]	TGI (HOP-62 NSCLC) [µM]	TGI (NCI-H23 lung) [µM]	TGI (SW-620 colon) [µM]	TGI (DU-145 prostate) [µM]	TGI (SK-MEL-5 melanoma) [µM]	TGI (RPMI-8226 leukemia) [µM]	GI50 (SR leukemia) [µM]	GI50 (M14 melanoma) [µM]	GI50 (OVCAR-4 ovarian) [µM]	GI50 (T-47D breast) [µM]	GI50 (HOP-62 NSCLC) [µM]	GI50 (NCI-H23 lung) [µM]	GI50 (SW-620 colon) [µM]	GI50 (DU-145 prostate) [µM]	GI50 (SK-MEL-5 melanoma) [µM]	GI50 (RPMI-8226 leukemia) [µM]
O=C1c2cc3c(cc2CC12Cc1ccc4c(c1C2=O)CCC4)CCC3 (stereo not given)	> 100	> 100	> 100	> 100	> 100	> 100	> 100	> 100	> 100	> 100										
CCOC(=O)/C=C/CCC(C)(C)COC(C)=O	> 10	> 10	> 10	> 10	> 10	> 10	> 10	> 10	> 10	> 10										
COc1ccc2c(c1OC)C(=O)N1C2=Cc2c(cc3c(c2OC)OCO3)CC1N(C)C (stereo not given)	> 100	> 100	> 100	74.4	> 100	> 100	> 100	> 100	> 100	99.6										
Cc1c(C(=O)NNc2ccccc2)n2c(=S)[nH]nc2c2ccccc12	> 100	> 100	> 100	> 100	> 100	> 100	> 100	> 100	> 100	> 100										
COc1ccc(C(=O)/C=C/SC(=NC#N)SC)cc1	19.6	35.1	> 100	47.3	44.1	33.2	48.3	53.5	39	> 100										
CSc1nc(=O)c2nc(-c3cccs3)c(-c3cccs3)nc2n1C	> 100	> 100	> 100	80.4	47.2	> 100	> 100	> 100	> 100	> 100										
CCN(CC)CCCCNc1c2ccc(Cl)cc2nc2ccc(OC)cc12	1.53	2.58	2.44	4.54	2.89	2.38	2.12	1.62	2.9	4.2	0.207	1.15	0.364	1.22	0.401	0.524	0.277	0.34	1.46	0.566
O=C(c1ccc([N+](=O)[O-])cc1)N1CCCC1	> 100	> 100	> 100	> 100	> 100	> 100	> 100	> 100	> 100	> 100										
CN1c2ccccc2C2=C(c3ccccc3)CC[C@@H](C(=O)N3C4CC5CC[C@@]4(CS3(=O)=O)C5(C)C)[C@@H]21 (stereo not given in full)	> 100	> 100	> 100	> 100	> 100	> 100	> 100	> 100	> 100	> 100										
NC(=O)c1ccc[n+](C2=C([O-])c3ccccc3C(=O)/C2=N\S(=O)(=O)c2ccccc2)c1	> 100	29.1	18.9	53.6	33	30.6	30.7	34	21.3	> 100										
O=c1c2cc([N+](=O)[O-])ccc2oc2nc3n(c(=O)c12)CCCS3	> 100	> 100	> 100	> 100	> 100	> 100	> 100	> 100	> 100	> 100										
CCc1nc2c(c(N(C)C)c1C(=O)OC)CCc1ccccc1-2	32.9	74.2	> 100	58.1	63.5	> 100	> 100	40.9	32.9	46.6										
CC1(C)C=C(/C=C2/N(S(=O)(=O)C(F)(F)F)C(/C=C3/N(S(=O)(=O)C(F)(F)F)C(C)(C#N)CC3(C)C)=CC2(C)C)N=C1/C=C1/CC(C)(C)C(=O)N1 (stereo not given)	> 100	> 100	> 100	> 100	> 100	> 100	> 100	> 100	71.6	23.4										
CC[C@H](NC(=O)OC(C)(C)C)C(=O)NCP(=O)(OCc1ccc([N+](=O)[O-])cc1)OCc1ccc([N+](=O)[O-])cc1	> 100	> 100	> 100	> 100	> 100	> 100	> 100	> 100	26.4	> 100										
COc1ccc(-c2cc3cc(Cl)cc(Cl)c3oc2=O)cc1OC	> 100	> 100	> 100	> 100	> 100	> 100	> 100	> 100	> 100	> 100										
O=C([C@H](O)[C@@H](O)c1cccc(Cl)c1)C12CC3CC(CC(C3)C1)C2	> 100	7.16	7.49	4.21	7.9	3.84	> 45	5.08	14.8	> 22.7										
CC(C)=C/C(CC(O)(C(F)(F)F)C(F)(F)F)=N\O	> 100	> 100	> 100	> 100	> 100	> 100	> 100	> 100	> 100	> 100										
